# Entries after “also recorded” stand apart in the source; their conditions may differ.
# Columns and labels:
# P. aeruginosa gyrase = target: T1, P. aeruginosa gyrase (Pseudomonas aeruginosa, UniProt P48372); experiment: Gyrase supercoiling inhibition; type: biochemical
# T1 construct: purchased Inspiralis Ltd. PAG1001
# Description: (§1) Of this stock solution, 27 µl was aliquoted for each reaction in 1.5 ml Eppendorf tubes and supplemented with 0.6 µl of the appropriate compound dilution or corresponding solvent with a final DMSO concentration of 2%. The reactions were started with 3 µl of enzyme (1 U for WT gyrase retrieved from Inspiralis Limited or 25–30 nM gyrase variants purified in house) in dilution buffer (50 mM Tris–HCl (pH 7.5), 100 mM KCl, 2 mM DTT, 1 mM EDTA and 50% (wt/vol) glycerol) for a final volume of 30 µl. Reactions were run at 37 °C for 30 min and stopped with the addition of 30 µl STEB buffer (40% (wt/vol) sucrose, 100 mM Tris–HCl pH 8, 100 mM EDTA, 0.5 mg ml^−1 bromophenol blue) and 30 µl of a chloroform:isoamyl alcohol solution (24:1 vol/vol). After brief vortexing and centrifugation at 2,300g for 1 min, 20 µl of the aqueous phase was loaded onto 1% (wt/vol) agarose gels in TAE (Tris–acetate […]) gel. The gels were run at 85 V for 2 h followed by staining (15 min) in 1 µg ml^−1 ethidium bromide and destaining (5–10 min) in water. DNA was visualized (602/50, UV Trans, auto optimal exposure) with a ChemiDoc MP (Bio-Rad Laboratories Inc., equipped with ImageLab Touch Software v2.0.0.27) and the percentage of supercoiled DNA relative to the total amount material per lane was determined with ImageLab 6.1 software (Bio-Rad Laboratories Inc.) or ImageJ[47] software. […]
# E. coli gyrase [1] = target: T2, E. coli gyrase (Escherichia coli, UniProt P0AES4); experiment: Time course of CIP- and Ca2+-mediated DNA cleavage; type: biochemical; conditions: 5 µM LEI-800
# T2 sequence (P0AES4 whole entry): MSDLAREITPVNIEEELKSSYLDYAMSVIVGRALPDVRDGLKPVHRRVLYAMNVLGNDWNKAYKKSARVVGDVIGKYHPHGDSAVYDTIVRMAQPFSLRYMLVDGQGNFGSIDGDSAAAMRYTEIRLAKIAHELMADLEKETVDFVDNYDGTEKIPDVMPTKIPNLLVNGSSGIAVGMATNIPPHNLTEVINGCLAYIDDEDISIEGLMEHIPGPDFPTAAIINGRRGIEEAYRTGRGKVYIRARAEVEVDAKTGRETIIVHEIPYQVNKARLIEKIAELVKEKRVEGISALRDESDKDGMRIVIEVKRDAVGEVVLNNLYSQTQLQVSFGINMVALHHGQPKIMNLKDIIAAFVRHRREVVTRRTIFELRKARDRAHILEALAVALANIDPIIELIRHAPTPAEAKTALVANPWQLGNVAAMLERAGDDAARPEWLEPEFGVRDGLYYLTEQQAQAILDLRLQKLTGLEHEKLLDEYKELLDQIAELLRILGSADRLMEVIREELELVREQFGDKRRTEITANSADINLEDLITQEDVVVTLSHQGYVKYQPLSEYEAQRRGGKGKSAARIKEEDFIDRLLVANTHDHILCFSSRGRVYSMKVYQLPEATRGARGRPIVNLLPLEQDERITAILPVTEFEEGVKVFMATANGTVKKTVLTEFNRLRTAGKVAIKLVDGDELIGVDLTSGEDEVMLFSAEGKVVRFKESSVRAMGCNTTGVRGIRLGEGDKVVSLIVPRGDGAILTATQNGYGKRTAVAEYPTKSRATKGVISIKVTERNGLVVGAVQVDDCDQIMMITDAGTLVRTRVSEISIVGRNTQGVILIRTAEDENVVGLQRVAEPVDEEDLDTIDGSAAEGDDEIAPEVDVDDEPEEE
# Description: Time courses of CIP- and Ca^2+-mediated DNA cleavage were performed based on a previously published protocol. E. coli gyrase (200 nM) was incubated at 25 °C in 360 µl reactions with assay buffer (35 mM Tris–HCl (pH 7.5), 24 mM KCl, 4 mM MgCl2, 2 mM DTT, 1.8 mM spermidine, 1 mM ATP, 6.5% (wt/vol) glycerol and 0.1 mg ml^−1 albumin) and 500 ng supercoiled pBR322 DNA (Inspiralis Ltd.). For CIP-induced cleavage, 5 µM […] into the master mix. For Ca^2+-induced cleavage, the assay buffer was supplemented with 5 mM CaCl2. […] At selected timepoints, 30 µl aliquots were withdrawn and stopped by an addition of 3 µl 2% SDS and 3 µl 100 mM EDTA. After the time course, aliquots were treated with proteinase K (0.5 mg ml^−1) for 30 min at 37 °C and extracted with 30 µ chloroform:isoamyl alcohol solution (24:1 vol/vol). The aqueous layers from the assays were mixed with 30 µl STEB and run on 1% agarose TAE gels with 10 µg ml^−1 ethidium bromide at 80 V. Gels were visualized and analysed as described for the supercoiling inhibition assays.
# sheep blood cells = experiment: Haemolytic activity; type: cell-based; conditions: 20 h incubation with sheep blood cells
# Description: Whole defibrinated sheep blood (10631715, Fisher Scientific) was centrifuged (400g) for 15 min at 4 °C. The supernatant was discarded and the remaining blood cell suspension was mixed with PBS and centrifuged (400g) for 15 min at 4 °C. Washing cycles were repeated at least three times, until the supernatant was clear after centrifugation. The packed blood cells were diluted 25-fold in PBS with 0.002% polysorbate 80. Test compounds were serially diluted twofold in U-bottom polypropylene 96-well microtitre plates in PBS with 0.002% polysorbate 80 (75 µl). An equal volume (75 µl) of the blood cell suspension was added to all wells. […]. The well plates were incubated for 20 h at 37 °C with continuous shaking (500 r.p.m.). After incubation, plates were centrifuged (800g) for 5 min, and 25 µl of supernatant was transferred to a clear UV-star flat-bottom polystyrene 96-well plate containing 100 µl ultrapure water per well. Absorption was measured at 415 nm with a Spark multimode microplate reader (Tecan). Data were corrected for the background response of 0.5% DMSO in the presence of cells with no antibiotic and normalized using the absorbance of 0.1% Triton X-100 with blood cells, as 100% haemolytic activity.
# (UniProt Q2FCU6) = experiment: Gyrase supercoiling inhibition; type: biochemical, Acinetobacter baumannii; conditions: read-out: IC50 supercoiling, A. baumannii gyrase
# Description: as §1
# E. coli gyrase [2] = target: T2, E. coli gyrase; experiment: ATP-independent relaxation inhibition; type: biochemical; conditions: 200 nM gyrase
# Description: E. coli relaxation inhibition assays were conducted in a similar manner to supercoiling inhibition assays with the following modifications: spermidine and ATP were omitted from the assay buffer, supercoiled plasmid (pBR322) was used as DNA substrate and 200 nM E. coli gyrase was added to each reaction. After stopping each reaction with STEB, 3 µl 2% SDS was added and tubes were vigorously vortexed before loading the aqueous phase onto the gel.
# T1 sequence (P48372 whole entry): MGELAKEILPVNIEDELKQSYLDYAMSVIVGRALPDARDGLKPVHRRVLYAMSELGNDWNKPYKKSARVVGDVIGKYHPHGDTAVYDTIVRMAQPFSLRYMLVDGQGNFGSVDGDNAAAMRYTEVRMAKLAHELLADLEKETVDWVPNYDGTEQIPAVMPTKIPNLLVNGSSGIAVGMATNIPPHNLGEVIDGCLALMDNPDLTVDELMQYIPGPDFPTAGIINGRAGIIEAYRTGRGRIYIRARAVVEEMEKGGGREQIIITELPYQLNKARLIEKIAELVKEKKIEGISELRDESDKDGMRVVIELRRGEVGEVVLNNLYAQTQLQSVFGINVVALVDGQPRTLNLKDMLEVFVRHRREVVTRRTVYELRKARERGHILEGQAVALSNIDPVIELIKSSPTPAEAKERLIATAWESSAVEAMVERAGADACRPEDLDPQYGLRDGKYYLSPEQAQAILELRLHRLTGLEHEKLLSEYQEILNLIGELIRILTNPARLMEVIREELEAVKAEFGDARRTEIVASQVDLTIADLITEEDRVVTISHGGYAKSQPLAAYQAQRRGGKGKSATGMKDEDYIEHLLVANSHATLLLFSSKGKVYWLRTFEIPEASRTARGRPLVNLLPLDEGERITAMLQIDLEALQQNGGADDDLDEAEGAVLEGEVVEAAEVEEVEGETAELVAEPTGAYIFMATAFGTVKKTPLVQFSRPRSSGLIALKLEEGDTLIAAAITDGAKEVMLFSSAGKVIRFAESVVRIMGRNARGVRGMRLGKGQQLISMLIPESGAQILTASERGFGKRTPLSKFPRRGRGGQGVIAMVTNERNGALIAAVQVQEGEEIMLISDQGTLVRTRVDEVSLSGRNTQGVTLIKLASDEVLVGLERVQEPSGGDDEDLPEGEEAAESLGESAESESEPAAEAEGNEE
# T1 sequence (Q9I7C2 whole entry, further chain): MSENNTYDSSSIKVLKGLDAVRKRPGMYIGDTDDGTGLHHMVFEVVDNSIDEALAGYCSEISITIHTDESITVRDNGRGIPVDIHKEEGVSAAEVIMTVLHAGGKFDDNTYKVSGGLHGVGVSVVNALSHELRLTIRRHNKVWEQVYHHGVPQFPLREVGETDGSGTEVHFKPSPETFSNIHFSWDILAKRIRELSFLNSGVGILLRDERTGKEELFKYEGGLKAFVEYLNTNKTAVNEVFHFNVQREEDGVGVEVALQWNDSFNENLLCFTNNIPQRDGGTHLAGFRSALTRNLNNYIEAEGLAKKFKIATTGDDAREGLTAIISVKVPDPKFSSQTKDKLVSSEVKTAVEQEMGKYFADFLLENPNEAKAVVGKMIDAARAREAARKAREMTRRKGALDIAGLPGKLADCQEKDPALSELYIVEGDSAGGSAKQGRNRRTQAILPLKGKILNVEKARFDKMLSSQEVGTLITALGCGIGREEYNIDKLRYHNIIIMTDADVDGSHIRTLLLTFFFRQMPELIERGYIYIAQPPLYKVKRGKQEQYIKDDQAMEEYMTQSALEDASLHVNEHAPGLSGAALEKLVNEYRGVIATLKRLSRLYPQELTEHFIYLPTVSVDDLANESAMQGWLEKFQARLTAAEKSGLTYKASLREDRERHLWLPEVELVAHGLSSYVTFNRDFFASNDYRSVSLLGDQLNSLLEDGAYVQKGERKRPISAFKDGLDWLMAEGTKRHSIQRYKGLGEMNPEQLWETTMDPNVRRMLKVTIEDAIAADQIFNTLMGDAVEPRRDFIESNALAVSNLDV
smiles,measurement,setting,value
O=S(=O)(NC[C@@H]1CC[C@H](c2ccc(-c3cccnc3)cc2)N1)c1cccc2cnccc12 [LEI-800],IC50,P. aeruginosa gyrase,96 nM
same,CIP-mediated DNA cleavage,E. coli gyrase [1]; 5 µM CIP,amount of cleaved DNA is reduced; also recorded: clear inhibition
same,Ca2+-mediated DNA cleavage,E. coli gyrase [1]; 5 mM Ca2+,amount of cleaved DNA is reduced; also recorded: strongly inhibited
same,haemolytic activity,sheep blood cells,no haemolytic activity
same,IC50,(UniProt Q2FCU6),103 nM
same,ATP-independent supercoiling relaxation,E. coli gyrase [2],inhibited

# — publication PMC11374673, “Discovery of isoquinoline sulfonamides as allosteric gyrase inhibitors with activity against fluoroquinolone-resistant bacteria” (Nature Chemistry, 2024)
